A word on the Ki: it is a measure of affinity in units of concentration, obtained from inhibition or displacement.

The target of the assay is T1, Put1p (Put1pΔ18) (Saccharomyces cerevisiae, UniProt P09368).
T1 sequence (P09368 19-476): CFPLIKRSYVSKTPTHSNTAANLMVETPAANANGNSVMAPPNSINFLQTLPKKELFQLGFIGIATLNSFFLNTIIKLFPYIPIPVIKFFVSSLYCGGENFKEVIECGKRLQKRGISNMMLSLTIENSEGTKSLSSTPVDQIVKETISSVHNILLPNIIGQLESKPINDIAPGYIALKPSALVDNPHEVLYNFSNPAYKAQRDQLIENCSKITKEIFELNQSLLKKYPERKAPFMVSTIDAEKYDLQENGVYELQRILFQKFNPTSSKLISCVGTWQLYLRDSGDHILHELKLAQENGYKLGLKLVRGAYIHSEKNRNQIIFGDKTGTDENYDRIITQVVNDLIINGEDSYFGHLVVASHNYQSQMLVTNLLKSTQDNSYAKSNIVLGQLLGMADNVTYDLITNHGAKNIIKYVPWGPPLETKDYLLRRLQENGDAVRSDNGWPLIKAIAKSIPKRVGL
In words: proline:DCPIP assay, Lineweaver-Burk plot. The format is biochemical.

In turn, `O=C(O)[C@@H]1CCCO1` [L-THFA] returned a Ki of 5.3 mM.

(Values after PMC2880193 (Archives of biochemistry and biophysics, 2010).)
